Experimental data: patent US20150125550A1, “APPLICATION OF 2,9-DI-SEC-BUTYL-1,10-PHENANTHROLINE AS A GLIOBLASTOMA TUMOR CHEMOTHERAPY” (priority 2013, published 2015)

What was measured:
[1] = test system: A549 lung cancer cells; test: SRB colorimetric assay, A549 lung cancer cells, 72 hours; format: cell-based, human; settings: Homo sapiens; A549, 72 hours, average ± SD of three curves
Description: A549 cells were cultured in RPMI media supplemented with 10% Fetal Bovine Serum and 1% nonessential amino acids. Sub-culturing was carried out every 3-4 days and was completed by removing the supernatant media and treating the adherent cells with 1.0 mL of a 0.25% (w/v) Trypsin/0.5 mM EDTA solution. The cells were then treated for approximately 3 minutes in a 37° C. incubator under a 5% CO2 atmosphere. Trypsinization was stopped by the addition of 7.0 mL of cell culture media, the suspended cells were collected by centrifugation, and the resulting cell pellet was re-suspended in fresh cell culture media. The cells were then diluted 1:4 by volume and incubated in a 37° C. incubator with 5% CO2. Cells were grown to 80-90% confluency prior to being used in the SRB colorimetric assays.
To test the effects of compounds 1-18 on the growth of A549 lung cancer cells, SRB cytotoxicity assays were done as described by Skehan et al. Cells were maintained in RPMI media as described above, collected, and diluted so that cells could be seeded in 96-well plates at a density of 4,000 cells/well. The 96-well plate was incubated overnight at 37° C. under a 5% CO2 atmosphere. Subsequently, sterifiltered DMSO stock solutions of the drugs were added to the wells in various concentrations (0-25 μM) and the 96-well plate was incubated at 37° C. under a 5% CO2 for an additional 72 hours. The supernatant cell culture medium was then removed and the cells were fixed for 1 hour with 10% cold trichloroacetic acid (100 μL per well). The trichloroacetic acid was discarded and the plates were washed 5 times with de-ionized water and air dried. After being stained with 0.4% SRB ([…]) and incubated at room temperature for 10 minutes, the cells were washed 5 times with 1% acetic acid and air dried. The bound SRB was dissolved in 10 mM unbuffered Tris, pH 10.5 ([…]) for 10 minutes at room temperature, and the absorbance at 492 nm was measured using a microplate reader. The percent cell growth was then calculated based upon the absorbance values relative to control samples not containing any drug. Each drug concentration was done in triplicate to yield a percent growth vs. drug concentration curve, and these growth curves were subsequently repeated two additional times. The growth curves from the three experiments were then plotted in GraphPad Prism and best-fit curves were used to generate the IC50 values for each curve.

[2] = test system: A549 and H1703 lung cancer lines, and 886LN, Tu212, and Tu686 head/neck cancer lines; settings: head-neck and lung tumor lines; cited from earlier work
[3] = test system: human foreskin fibroblasts (HFFs); test: SRB toxicity assay on human foreskin fibroblasts; format: cell-based; settings: Fibroblast
Description: (§1) The murine (C57BL/6) glioma cell line, GL-26, which is highly tumorigenic in the C57BL/6 mice. GL-26 cells were cultured in DMEM/F12 supplemented with 10% FCS, 1% penicillin/streptomycin, 1% L-glutamine and 1% non-essential amino acids. Human foreskin fibroblasts (HFFs) were cultured in DMEM/F12 supplemented with 10% FCS and 1% penicillin/streptomycin. Primary murine astrocytes were purified from C57BL/6 neonate brains and cultured in DMEM/F12 supplemented with 10% FCS, 1% non-essential amino acids, 1% Lglutamine, 50 IU/ml penicillin, […] and 10 mM Hepes buffer.
(§2) The sulforhodamine B (SRB) cytotoxicity assays were adapted from Skehan et al. (22). Briefly, either HFF, primary astrocytes or GL-26 cells were plated in 96-well plates at a density of 4,000 cells/well in a volume of 100 µL overnight at 37° C. and 5% CO2. DMSO stock solutions of SBP, MSBP or TMZ were used at a concentration range of 0.1-25 μM for 48 hr before the supernatant was discarded and the cells were fixed for 1 hr with 10% cold trichloroacetic acid (100 μL, per well). Cells used in recovery assay received fresh media for 48 hrs following the 48 hr drug incubation. The plate was then washed 5 times with de-ionized water, air dried, and stained with 0.4% SRB for 10 min (50 μL, per well). After washing 5 times in 1% acetic acid and air-drying, bound SRB was dissolved in 10 mM unbuffered Tris base (pH 10.5; 100 μL, per well). Bound SRB was then read by absorbance at 492 nm on a SpectraMax plate reader (Molecular Devices). The percent survival was then calculated based upon the absorbance values relative to control wells (0 μM SBP in 0.1% DMSO).

[4] = test system: GL-26 murine glioma cells; test: SRB growth assay of SBP and gold complexes on GL-26 (Example 4); format: cell-based, murine (C57BL/6); settings: Mus musculus, GL26, 48 hr, read-out: concentration inhibiting GL-26 by 50%
Description: as §1, with “mice, was used.” for “mice.”, “L-glutamine,” for “Lglutamine,”
as §2, with “al (21).” for “al. (22).”, “μL” for “μL,”, “The plate was then washed 5 times with de-ionized water, air dried, and stained with 0.4% SRB for 10 min (50 μL, per well). After washing 5 times in 1% acetic acid and air-drying, bound SRB was dissolved in 10 mM unbuffered Tris base (pH 10.5; 100 μL, per well).” left out

CCC(C)c1ccc2ccc3ccc(C(C)CC)nc3c2n1 (centres unmarked) [Compound 1, 2,9-di-sec-butyl-1,10-phenanthroline]
IC50 [1]: 0.42 ± 0.17 µM
IC50 times lower than cisplatin [2]: 20-100 times
IC50 times lower than the parent gold(III) complex [2]: 4-14 times
in-vitro IC50 values [2]: in the nanomolar concentration regime
inhibition at 6 µM ([3]; 6 μM, 48 hours, read-out: HFF growth inhibition): ~20%
inhibition at 25 µM ([3]; 25 μM, 48 hours, read-out: HFF growth inhibition): 36.9 ± 1.3%
IC50 ([3]; not reached at 25 μM, read-out: IC50 on non-cancerous human fibroblast cells): > 25 µM
IC50 [4]: 0.8 to 1.6 µM
